The target in assay [1] is BvPgb 1.2. Nature of the assay: Flash photolysis and stopped-flow rapid mixing; KD calculated per Equation (3). The assay is classed as binding, Beta vulgaris. The conditions noted are these: rWT, calculated per Equation (3) KD,obs=koff(1+KH)/kon from kinetic parameters of ref 30. From the text: Our obtained results are consistent with KD values derivable from earlier work, where kinetic parameters for BvPgb 1.2 were obtained using stopped-flow rapid mixing and flash photolysis, allowing the calculation of a single apparent KD per gas. While not explicitly reported, KD can be estimated from those data using Equation (3):(3) KD,obs=koff(1+KH)/kon where KH is the hexacoordination equilibrium constant and the (1 + KH) factor is used to account for the “penalty” imposed by the hexacoordinated fraction. […] The additional lower KD or EC50 for CO (400–500 nM) observed with our method likely reflects the contribution of the closed protein form, consistent with the 100–1000-fold kinetic differences reported in [27, 28, 29].

The target of assay [2] is BvPgb 1.2 C86A mutant. Description: Isothermal spectral shift (SpS) gas-binding titration, Monolith X, RED-NHS-labeled protein. Further details: species or system Beta vulgaris. From the text:
(§1) The microscale capillary-based technology described here employs isothermal spectral shift (SpS). SpS has previously primarily been used for the determination of protein–protein interactions. In this study, we examine the possibility to extend the use of this technique to also include the binding of small ligands, like gases, to proteins. Ligand binding induces shifts in fluorescence spectra (blue- or red-shifts), which are detectable under isothermal conditions via dual-wavelength fluorescence detection at 650 nm and 670 nm. By plotting fluorescence intensity ratios (670/650 nm) against ligand concentration, the SpS-derived KD can be obtained. Our goal is to determine KD or half maximal effective concentrations (EC50) from ligand titration series. Here, we present a streamlined microscale method employing fluorophore-labeled proteins in gas-saturated microscale capillaries.
(§2) The proteins were thus incubated in solutions enriched with either CO or dissolved NONOate, utilizing a loading buffer (PBS-T20) to maintain gas saturation. Subsequent titrations of gas-enriched solutions yielded clear, reproducible dose–response curves.
(§3) All SpS measurements conducted in this study were performed using the Monolith X instrument (NanoTemper Technologies GmbH, München, Germany), which is equipped with dual-emission detection optics. The MO.Control 2software (NanoTemper Technologies GmbH) was used to calculate fluorescence intensity ratios at 670 and 650 nm. KD values were determined by fitting dose–response curves to a binding model that follows the law of mass action with a 1:1 interaction stoichiometry. This model defines the bound fraction, f(cL), at equilibrium for a given ligand concentration, cL, as given by Equation (1):(1) fcL=cL+cT+KD−cL+cT+KD^2−4cLcT/2cT where cT is the final concentration of target in the assay. The KD is estimated by fitting Equation (1) with the ratiometric expression seen in Equation (2):(2) RcL=Rf+fcL·Rb−Fb/Ff·Rf/1+fcL·Fb/Ff−1 where R(cL) represents the 670 nm/650 nm ratio at a given cL, Rf corresponds to the ratio of the free target, and Rb corresponds to the bound complex. The parameters Fb and Ff, derived from the sigmoidal dose–response curve fitting of the […], adjust for ligand-induced changes in fluorescence intensity at 650 nm.
(§4) Covalent labeling of primary amines was performed using the Protein Labeling Kit RED-NHS 2nd Generation (cat# MO-L011; NanoTemper Technologies GmbH). The assay buffer (PBS-T20) was prepared by supplementing degassed PBS pH 7.4 (cat# 21-040-CV; Corning, NY, USA) with 0.05% Tween20. Purified proteins in Tris were subjected to buffer exchange using the A-column prior to labeling. Briefly, a twofold molar excess of dye was added to the protein prepared to a final concentration of 20 µM. Proteins and dye were incubated for 30 min at room temperature in the dark to avoid photobleaching. Free dye was removed from the labeled protein using the provided B-column. Labeled proteins were kept in the dark and on ice awaiting capillary loading.
(§5) A working 1 mM CO solution was prepared by sparging PBS-T20 with CO, with the concentration approximated through Henry’s law for CO dissolvability in water (kH(CO) ≈ 0.001 mol l^−1 bar^−1). A working 2 mM NO solution (kH(NO) ≈ 0.002 mol l^−1 bar^−1) was prepared by dissolving 25 mg of NONOate (cat# D184-25MG; Merck, Darmstadt, Germany) in 15 mL of PBS-T20 to obtain a 10.75 mM solution, which provides a 10-molar excess of saturation upon decomposition. The NONOate PBS-T20 solution was gently agitated to create a gas-buffer zone to capture decomposing NONOate. Ligand solutions were prepared as 16-point serial dilutions of 10 µL in PCR-strip tubes, before being mixed by means of aspiration with 10 µL of labeled protein and incubated for 5 min. […]

Assay [3] deals with BvPgb 1.2 recombinant wild type (rWT). Described as above. Further details: species or system Beta vulgaris.
Excerpt: as §1, §2, §3, §4, §5

Where [4] appears, read: first transition of biphasic dose-response, read-out: EC50, CO binding, first transition.
Setting [5] is: second transition of biphasic dose-response, read-out: EC50, CO binding, second transition.
Setting [6] is: PBS-T20 pH 7.4, NO from NONOate, read-out: KD(NO), Isothermal Spectral Shift.
Where [7] appears, read: text and figure legend, read-out: KD, NO binding.

A word on the EC50: it is the concentration that produces a half-maximal response.

“And” between values parts separate entries of the source, which are not always exact repeats. Equal values may be shown once. Read-outs that look alike come from different tables or passages of the source.

Consider `[C-]#[O+]` [CO, carbon monoxide], for which the Kd in assay [1] (read-out: KD(CO, open), Flash Photolysis and Stopped-Flow Rapid Mixing) was approximately 100000 nM. Also, the “KD(CO, closed) /EC50,2, Isothermal Spectral Shift” value in assay [2] (PBS-T20 pH 7.4) turned out to be 500 ± 200 nM; in assay [3] (PBS-T20 pH 7.4), 400 ± 100 nM. The “KD(CO, open) /EC50,1, Isothermal Spectral Shift” value in assay [2] (PBS-T20 pH 7.4) was found to be 400000 ± 300000 nM; in assay [3] (PBS-T20 pH 7.4), 700000 ± 200000 nM. The EC50 in assay [2] (setting [4]) was approximately 500 nM; in assay [2] (setting [5]), approximately 400000 nM; in assay [3] (setting [4]) it was approximately 400 nM; in assay [3] (setting [5]), approximately 700000 nM.

As to nitric oxide [NO], the Kd was approximately 6400 nM in assay [1] (read-out: KD(NO), Flash Photolysis and Stopped-Flow Rapid Mixing); 400 ± 100 nM in assay [2] (setting [6]); 400 nM and ~400 nM in assay [2] (setting [7]); 1600 ± 100 nM in assay [3] (setting [6]); 1600 nM and ~1600 nM in assay [3] (setting [7]).

Values taken from PMC12428610, “Gas-Binding Studies of Class 1 Sugar Beet Phytoglobin and C86A Mutant Using Isothermal Spectral Shifts in High-Precision Microliter Assay” (International Journal of Molecular Sciences, 2025).
